# “And” between values parts separate entries of the source, which are not always exact repeats. Equal values may be shown once.
# How the values were obtained:
# [1] = instrument: DT, single field, calibrated with ESI Low Concentration Tuning Mix (Agilent)
# [2] = [M+H]+; instrument: TW; calibrated with polyalanine and drug standards
Compound,collision cross section (N2) ([1]; [M+Na]+),collision cross section (N2) ([1]; [M-H]-),collision cross section (N2) ([1]; [M+H]+),also measured
C[n+]1cccc(C(N)=O)c1 [1-METHYLNICOTINAMIDE],–,–,–,collision cross section (N2) ([1]; [M+]+): 126.2 Å²
CC(=O)N[C@@H]1[C@@H](O)[C@H](O)[C@@H](CO)O[C@H]1N [2-ACETAMIDO-2-DEOXY-BETA-D-GLUCOSYLAMINE],149.1 Å² and 157.8 Å²,155.2 Å²,–,–
CC[C@H](O)C(=O)O [2-HYDROXYBUTYRATE],–,117.2 Å²,–,–
CC(CCC(=O)O)C(=O)O (stereo not given) [2-METHYLGLUTARATE],137.4 Å²,126 Å²,–,collision cross section (N2) ([1]; [M+Na-2H]-): 132.6 Å²
C/C(=C/C(=O)O)C(=O)O [2-METHYLMALEATE],–,118.2 Å²,–,–
O=C(O)C(CO)OP(=O)(O)O (stereo not given) [2-PHOSPHOGLYCERATE],141.9 Å²,124.2 Å²,134.3 Å²,collision cross section (N2) ([1]; [M+Na-2H]-): 133.1 Å²
"O=C(O)c1ccc([O-])c(O)c1 [3,4-DIHYDROXYBENZOATE]",–,122.5 Å²,–,–
"N[C@@H](Cc1cc(I)c(Oc2ccc(O)cc2)c(I)c1)C(=O)O [3,5-DIIODO-L-THYRONINE]",189.4 Å²,188.2 Å²,198.5 Å²,–
O=C([O-])CCc1ccccc1O [3-(2-HYDROXYPHENYL)PROPANOATE],–,133.2 Å²,–,–
O=Cc1cccc(O)c1 [3-HYDROXYBENZALDEHYDE],–,118 Å²,–,–
CC1C(=O)Nc2ccccc21 (stereo not given) [3-METHYL-2-OXINDOLE],–,–,130.4 Å²,–
CCC(C)C(=O)C(=O)O (stereo not given) [3-METHYL-2-OXOVALERATE],–,127.1 Å²,–,–
NC(CS(=O)O)C(=O)O (stereo not given) [3-SULFINOALANINE],–,–,133.7 Å²,–
Nc1ccc(C(=O)[O-])cc1 [4-AMINOBENZOATE],–,–,126.9 Å²,–
Cc1ccc(O)c(O)c1 [4-METHYLCATECHOL],–,121 Å²,–,–
O=C(O)c1ccnc2ccccc12 [4-QUINOLINECARBOXYLATE],–,134.3 Å²,133.4 Å²,–
C[C@H]1O[C@@H](n2cnc3c(N)ncnc32)[C@H](O)[C@@H]1O [5'-DEOXYADENOSINE],167.2 Å²,154.8 Å²,152.3 Å² and 158.4 Å²,–
"Cc1cc2nc[nH]c2cc1C [5,6-DIMETHYLBENZIMIDAZOLE]",–,129.9 Å²,130.3 Å²,–
NC(Cc1c[nH]c2ccc(O)cc12)C(=O)O (stereo not given) [5-HYDROXYTRYPTOPHAN],152.6 Å²,146.9 Å² and 151.5 Å²,154.5 Å²,collision cross section (N2) ([1]; [M+Na-2H]-): 149.7 Å²
O=C(O)CCCCCC(=O)O [6-CARBOXYHEXANOATE],140 Å²,130.9 Å²,–,collision cross section (N2) ([1]; [M+Na-2H]-): 134.4 Å²
O=C(O)CCCCCCCCCO [10-HYDROXYDECANOATE],151 Å²,144.3 Å²,–,–
NCCP(=O)(O)O [(2-AMINOETHYL)PHOSPHONATE],136.5 Å²,120 Å²,129 Å²,–
"Nc1ncnc2c1ncn2[C@@H]1O[C@H](COP(=O)(O)O)[C@@H](OP(=O)(O)O)[C@H]1O [ADENOSINE 3',5'-DIPHOSPHATE]",188 Å²,184.3 Å²,183.3 Å²,collision cross section (N2) ([1]; [M+Na-2H]-): 188.5 Å²
Nc1ncnc2c1ncn2C1OC(COP(=O)(O)OP(=O)(O)OCC2OC(O)C(O)C2O)C(O)C1O (stereo not given) [ADENOSINE DIPHOSPHATE RIBOSE],217.5 Å²,202.3 Å² and 207.2 Å²,212.4 Å²,collision cross section (N2) ([1]; [M+H2O-H]-): 204.5 Å²; collision cross section (N2) ([1]; [M+Na-2H]-): 211.5 Å²
Nc1ncnc2c1ncn2[C@@H]1O[C@H](COP(=O)(O)OP(=O)(O)O[C@H]2O[C@H](CO)[C@@H](O)[C@H](O)[C@H]2O)[C@@H](O)[C@H]1O [ADP-GLUCOSE],224.9 Å²,217.5 Å²,216.1 Å²,collision cross section (N2) ([1]; [M+Na-2H]-): 218.4 Å²
C[C@H](O)[C@H](N)C(=O)O [ALLOTHREONINE],–,119.3 Å²,–,–
Cn1cncc1C[C@H](NC(=O)CCN)C(=O)O [ANSERINE],156.2 Å²,154.8 Å²,153.8 Å²,–

Compound,collision cross section (N2) ([1]; [M+Na]+),collision cross section (N2) ([1]; [M-H]-),collision cross section (N2) ([1]; [M+H]+),also measured
OC[C@@H](O)C(O)[C@H](O)CO [ARABITOL],135.8 Å²,124.9 Å²,–,–
NC(N)=NCCC[C@H](N)C(=O)O [ARGININE],148.6 Å²,136.4 Å²,136.6 Å²,–
O=C(O)CCCCCCCC(=O)O [AZELATE],148.4 Å²,–,–,collision cross section (N2) ([1]; [M+Na-2H]-): 141.9 Å²
NC(=O)c1ccc[n+]([C@@H]2O[C@H](COP(=O)([O-])OP(=O)(O)OC[C@H]3O[C@@H](n4cnc5c(N)ncnc54)[C@H](O)[C@@H]3O)[C@@H](O)[C@H]2O)c1 [BETA-NICOTINAMIDE ADENINE DINUCLEOTIDE],222.7 Å²,223.8 Å²,227.5 Å²,collision cross section (N2) ([1]; [M+Na-2H]-): 230.8 Å²
NCCC(=O)N[C@@H](Cc1cnc[nH]1)C(=O)O [CARNOSINE],154.7 Å²,152.1 Å²,150.8 Å²,–
OC[C@H]1O[C@@H](O[C@H]2[C@H](O)[C@@H](O)[C@H](O)O[C@@H]2CO)[C@H](O)[C@@H](O)[C@@H]1O [CELLOBIOSE],178.7 Å²,179.7 Å²,–,collision cross section (N2) ([1]; [M+K]+): 180.9 Å²
O=C(O)CC(O)(CC(=O)O)C(=O)O [CITRATE],143.1 Å²,127.1 Å²,–,–
NC(=O)NCCC[C@H](N)C(=O)O [CITRULLINE],139.4 Å²,135.4 Å²,137.7 Å²,–
NC(CS(=O)(=O)O)C(=O)O (stereo not given) [CYSTEATE],148.2 Å²,123 Å²,140.2 Å²,collision cross section (N2) ([1]; [M+Na-2H]-): 131.4 Å²
"Nc1ccn(C2O[C@H](CO)[C@H]3OP(=O)(O)O[C@@H]23)c(=O)n1 (stereo not given in full) [CYTIDINE 2',3'-CYCLIC PHOSPHATE]",167.4 Å²,164.5 Å²,163.3 Å²,collision cross section (N2) ([1]; [M+H2O-H]-): 167.1 Å²; collision cross section (N2) ([1]; [M+K]+): 168 Å²; collision cross section (N2) ([1]; [M+Na-2H]-): 165 Å²
NCCC[C@@H](N)C(=O)O [D-ORNITHINE],–,128.3 Å²,128.1 Å²,–
O=P(O)(O)OC[C@H]1OC(O)[C@H](O)[C@@H]1O (stereo partly drawn) [D-RIBOSE 5-PHOSPHATE],150.5 Å²,139.4 Å²,–,–
C[C@H](CCC(=O)O)[C@H]1CC[C@H]2[C@@H]3CC[C@@H]4C[C@H](O)CC[C@]4(C)[C@H]3C[C@H](O)[C@]12C [DEOXYCHOLATE],–,202.2 Å² and 202.3 Å²,–,–
Nc1ccn([C@H]2C[C@H](O)[C@@H](CO)O2)c(=O)n1 [DEOXYCYTIDINE],155.2 Å²,148.7 Å²,–,collision cross section (N2) ([1]; [M+K]+): 158.5 Å²
Nc1nc(=O)c2ncn([C@H]3C[C@H](O)[C@@H](COP(=O)(O)OP(=O)(O)OP(=O)(O)O)O3)c2[nH]1 [DGTP],–,191.4 Å²,–,collision cross section (N2) ([1]; [M+Na-2H]-): 182.7 Å²
CCOC(=O)Cc1c[nH]c2ccccc12 [ETHYL 3-INDOLEACETATE],153.6 Å²,145.6 Å²,145.2 Å²,–
CCCCC(=O)N(Cc1ccc(-c2ccccc2-c2nn[nH]n2)cc1)[C@H](C(=O)O)C(C)C [VALSARTAN],–,–,–,collision cross section (N2) [2]: 202 Å²
Nc1ncnc2c1ncn2[C@@H]1O[C@H](CO)[C@@H](O)[C@@H]1O [VIDARABINE],–,–,–,collision cross section (N2) [2]: 156.4 Å²
CC[C@]12CCCN3CCc4c(n(c5ccccc45)[C@@](O)(C(=O)OC)C1)[C@@H]32 [VINCAMINE],–,–,–,collision cross section (N2) [2]: 180.9 Å²
COc1cc(O)c(C(C)=O)c(OC)c1 [XANTHOXYLIN],–,–,–,collision cross section (N2) [2]: 135.9 Å²
CCCOc1ccccc1-c1nc2[nH][nH]nc-2c(=O)n1 [ZAPRINAST],–,–,–,collision cross section (N2) [2]: 159.2 Å²
CN(C)CCc1c[nH]c2ccc(C[C@H]3COC(=O)N3)cc12 [ZOLMITRIPTAN],–,–,–,collision cross section (N2) [2]: 159.7 Å²
CN1CCN(C(=O)OC2c3nccnc3C(=O)N2c2ccc(Cl)cn2)CC1 (stereo not given) [ZOPICLONE],–,–,–,collision cross section (N2) [2]: 186.5 Å²
CC(=O)O[C@@H]1CC2C(C)(C)[C@H](O)CC[C@]2(C)C2CC[C@@]3(C)[C@H](c4ccoc4)OC(=O)C4OC43[C@@]21C (stereo partly drawn) [alpha-DIHYDROGEDUNOL],–,–,–,collision cross section (N2) [2]: 205.9 Å²
COc1c(O)cc2oc3cc(O)c(CC=C(C)C)c(O)c3c(=O)c2c1CC=C(C)C [alpha-MANGOSTIN],–,–,–,collision cross section (N2) [2]: 198.8 Å²
CC(=O)Oc1c(C)c(C)c2c(c1C)CCC(C)(CCCC(C)CCCC(C)CCCC(C)C)O2 (stereo not drawn) [alpha-TOCHOPHERYL ACETATE],–,–,–,collision cross section (N2) [2]: 230.2 Å²
CC12CCCC(O)(C1)C1CC(C)(C)C1CC2 (stereo not drawn) [beta-CARYOPHYLLENE ALCOHOL],–,–,–,collision cross section (N2) [2]: 146.1 Å²
